Counter-ions that a name gives are not always drawn.
These compounds were tested against human GlyT1c transporter (Homo sapiens (Human), UniProt P48067) (assay: Radioligand binding assay using recombinant CHO cell membranes expressing human GlyT1). Details: human GlyT1c-expressing CHO cell membranes; hydrochloride; read-out: radioligand binding Kiapp.
Sequence of human GlyT1c transporter (P48067 whole entry): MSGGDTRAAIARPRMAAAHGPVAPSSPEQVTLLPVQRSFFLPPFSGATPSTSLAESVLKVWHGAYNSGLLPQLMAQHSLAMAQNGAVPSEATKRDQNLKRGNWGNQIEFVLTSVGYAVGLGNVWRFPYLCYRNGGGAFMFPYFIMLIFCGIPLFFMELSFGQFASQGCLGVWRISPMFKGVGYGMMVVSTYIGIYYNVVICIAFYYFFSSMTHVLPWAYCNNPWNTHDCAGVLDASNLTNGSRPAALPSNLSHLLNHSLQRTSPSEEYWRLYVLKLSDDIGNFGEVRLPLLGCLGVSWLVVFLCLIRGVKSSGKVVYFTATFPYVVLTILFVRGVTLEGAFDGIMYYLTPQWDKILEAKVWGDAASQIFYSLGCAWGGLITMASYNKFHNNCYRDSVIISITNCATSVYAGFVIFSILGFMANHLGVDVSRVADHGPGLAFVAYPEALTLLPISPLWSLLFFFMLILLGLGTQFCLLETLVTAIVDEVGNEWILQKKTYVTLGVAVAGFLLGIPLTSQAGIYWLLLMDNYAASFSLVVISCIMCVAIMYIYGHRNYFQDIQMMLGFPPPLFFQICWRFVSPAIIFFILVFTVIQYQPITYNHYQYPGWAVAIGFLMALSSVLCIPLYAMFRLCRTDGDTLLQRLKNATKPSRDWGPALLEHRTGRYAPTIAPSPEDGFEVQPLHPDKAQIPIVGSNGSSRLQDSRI
Excerpt: 2. Radioligand binding assays using recombinant CHO cell membranes expressing human GlyT1: […]
NC1CCc2ccc(OCCNS(=O)(=O)CCC(F)(F)F)cc2C1Cc1ccccc1 (stereo not shown) [Example 100, 3,3,3-Trifluoro-propane-1-sulfonic acid [2-(7-amino-8-benzyl-5,6,7,8-tetrahydronaphthalen-2-yloxy)-ethyl]amide hydrochloride] gave a Ki of at most 1000 nM.
Cn1cnc(S(=O)(=O)NCCOc2ccc3c(c2)C(Cc2ccccc2)C(N2CCCC2)CC3)c1 (stereo not shown) [Example 116, N-(2-(8-Benzyl-7-(pyrrolidin-1-yl)-5,6,7,8-tetrahydronaphthalen-2-yloxy)ethyl)-1-methyl-1H-imidazole-4-sulfonamide hydrochloride] was tested, and the Ki was at most 10 nM.

Same assay, conditions: human GlyT1c-expressing CHO cell membranes; read-out: radioligand binding Kiapp
In the case of NC1CCc2ccc(OCCNS(=O)(=O)c3ccccc3)cc2C1Cc1ccccc1 (stereo not shown) [Example 99, N-[2-(7-Amino-8-benzyl-5,6,7,8-tetrahydro-naphthalen-2-yloxy)-ethyl]-benzenesulfonamide hydrochloride], the Ki is reported as at most 100 nM.
CN(CCOc1ccc2c(c1)C(Cc1ccccc1)C(N1CCCC1)CC2)S(=O)(=O)c1cn(C)cn1 (stereo not shown) [Example 101, 1-Methyl-1H-imidazole-4-sulfonic acid [2-(8-benzyl-7-pyrrolidin-1-yl-5,6,7,8-tetrahydronaphthalen-2-yloxy)-ethyl]-methyl-amide hydrochloride] gave a Ki of at most 100 nM.
For NC1CCc2ccc(OCCNS(=O)(=O)C3CC3)cc2C1Cc1ccccc1 (stereo not shown) [Example 102, Cyclopropanesulfonic acid [2-(7-amino-8-benzyl-5,6,7,8-tetrahydro-naphthalen-2-yloxy)ethyl]-amide hydrochloride], the Ki was at most 1000 nM.
CCC(=O)NCCOc1ccc2c(c1)C(Cc1ccccc1)C(N)CC2 (stereo not shown) [Example 103, N-[2-(7-Amino-8-benzyl-5,6,7,8-tetrahydro-naphthalen-2-yloxy)-ethyl]-propionamide hydrochloride] was tested, and the Ki was at most 10000 nM.
For Cn1cnc(S(=O)(=O)NCCOc2ccc3c(c2)C(Cc2ccc(Cl)c(Cl)c2)C(N)CC3)n1 (stereo not shown) [Example 104, 1-Methyl-1H-[1,2,4]triazole-3-sulfonic acid {2-[7-amino-8-(3,4-dichloro-benzyl)-5,6,7,8-tetrahydro-naphthalen-2-yloxy]-ethyl}-amide], the Ki was at most 1000 nM.
For CN(CCOc1ccc2c(c1)C(Cc1ccccc1)C(N1CCC1)CC2)S(=O)(=O)c1cn(C)cn1 (stereo not shown) [Example 105, 1-Methyl-1H-imidazole-4-sulfonic acid [2-(7-azetidin-1-yl-8-benzyl-5,6,7,8-tetrahydronaphthalen-2-yloxy)-ethyl]-methyl-amide], the Ki was at most 100 nM.
With NC1CCc2ccc(OCCNS(=O)(=O)CC3CCC3)cc2C1Cc1ccc(Cl)c(Cl)c1 (stereo not shown) [Example 106, N-{2-[7-Amino-8-(3,4-dichloro-benzyl)-5,6,7,8-tetrahydro-naphthalen-2-yloxy]-ethyl}-Ccyclobutyl-methanesulfonamide hydrochloride] the Ki was at most 1000 nM.
Compound CCCS(=O)(=O)NCCOc1ccc2c(c1)C(Cc1cccc(F)c1)C(N)CC2 (stereo not shown) [Example 107, Propane-1-sulfonic acid {2-[7-amino-8-(3-fluoro-benzyl)-5,6,7,8-tetrahydro-naphthalen-2-yloxy]-ethyl}-amide hydrochloride] has a Ki of at most 100 nM.
CN(CCOc1ccc2c(c1)C(Cc1ccc(Cl)c(Cl)c1)C(N)CC2)S(=O)(=O)CC1CC1 (stereo not shown) [Example 108, N-{2-[7-Amino-8-(3,4-dichloro-benzyl)-5,6,7,8-tetrahydro-naphthalen-2-yloxy]-ethyl}-C-cyclopropyl-N-methyl-methanesulfonamide hydrochloride] gave a Ki of at most 10 nM.
CN(CCOc1ccc2c(c1)C(Cc1ccccc1)C(N)CC2)S(=O)(=O)c1cnn(C)c1 (stereo not shown) [Example 109, 1-Methyl-1H-pyrazole-4-sulfonic acid [2-(7-amino-8-benzyl-5,6,7,8-tetrahydro-naphthalen-2-yloxy)-ethyl]-methyl-amide] gave a Ki of at most 100 nM.
CCN(CCOc1ccc2c(c1)C(Cc1ccc(Cl)c(Cl)c1)C(N)CC2)S(=O)(=O)c1cnn(C)c1 (stereo not shown) [Example 110, N-(2-(7-Amino-8-(3,4-dichlorobenzyl)-5,6,7,8-tetrahydronaphthalen-2-yloxy)ethyl)-N-ethyl-1-methyl-1H-pyrazole-4-sulfonamide] was tested, and the Ki was at most 1000 nM.
CN(CCOc1ccc2c(c1)C(Cc1ccccc1)C(N1CCCC1)CC2)S(=O)(=O)c1cnn(C)c1 (stereo not shown) [Example 111, 1-Methyl-1H-pyrazole-4-sulfonic acid [2-(8-benzyl-7-pyrrolidin-1-yl-5,6,7,8-tetrahydronaphthalen-2-yloxy)-ethyl]-methyl-amide hydrochloride] was tested, and the Ki was at most 100 nM.
Work on CN(CCOc1ccc2c(c1)C(Cc1ccccc1)C(N1CCC1)CC2)S(=O)(=O)c1cnn(C)c1 (stereo not shown) [Example 112, 1-Methyl-1H-pyrazole-4-sulfonic acid [2-(7-azetidin-1-yl-8-benzyl-5,6,7,8-tetrahydronaphthalen-2-yloxy)-ethyl]-methyl-amide hydrochloride] yielded a Ki of at most 100 nM.
Compound CCN(CCOc1ccc2c(c1)C(Cc1ccccc1)C(N)CC2)S(=O)(=O)c1cnn(C)c1 (stereo not shown) [Example 113, N-(2-(7-Amino-8-benzyl-5,6,7,8-tetrahydronaphthalen-2-yloxy)ethyl)-N-ethyl-1-methyl-1H-pyrazole-4-sulfonamide hydrochloride] has a Ki of at most 100 nM.
Work on CCCCCS(=O)(=O)NCCOc1ccc2c(c1)C(Cc1ccc(Cl)c(Cl)c1)C(N)CC2 (stereo not shown) [Example 114, N-(2-(7-Amino-8-(3,4-dichlorobenzyl)-5,6,7,8-tetrahydronaphthalen-2-yloxy)ethyl)pentane-1-sulfonamide hydrochloride] yielded a Ki of at most 1000 nM.
Compound CCCS(=O)(=O)NCCOc1ccc2c(c1)C(Cc1ccc(F)c(Cl)c1)C(N)CC2 (stereo not shown) [Example 120, N-(2-{[7-Amino-8-(3-chloro-4-fluorobenzyl)-5,6,7,8-tetrahydronaphthalen-2-yl]oxy}ethyl)propane-1-sulfonamide hydrochloride] has a Ki of at most 100 nM.
Compound NC1CCc2ccc(OCCNS(=O)(=O)CC3CC3)cc2C1Cc1ccccc1 (stereo not shown) [Example 121, N-(2-{[7-Amino-8-benzyl-5,6,7,8-tetrahydronaphthalen-2-yl]oxy}ethyl)-1-cyclopropylmethanesulfonamide hydrochloride] has a Ki of at most 10 nM.
For NC1CCc2ccc(OCCNC(=O)CC3CC3)cc2C1Cc1ccc(Cl)c(Cl)c1 (stereo not shown) [Example 122, N-(2-{[7-Amino-8-(3,4-dichlorobenzyl)-5,6,7,8-tetrahydronaphthalen-2-yl]oxy}ethyl)-2-cyclopropylacetamide hydrochloride], the Ki was at most 10000 nM.
In the case of NC1CCc2ccc(OCCNC(=O)c3ccccc3)cc2C1Cc1ccc(Cl)c(Cl)c1 (stereo not shown) [Example 123, N-(2-{[7-Amino-8-(3,4-dichlorobenzyl)-5,6,7,8-tetrahydronaphthalen-2-yl]oxy}ethyl)benzamide hydrochloride], the Ki is reported as at most 10000 nM.
CCN(CCOc1ccc2c(c1)C(Cc1ccccc1)C(N1CCCC1)CC2)S(=O)(=O)c1cnn(C)c1 (stereo not shown) [Example 124, N-(2-{[8-Benzyl-7-(pyrrolidin-1-yl)-5,6,7,8-tetrahydronaphthalen-2-yl]oxy}ethyl)-N-ethyl-1-methyl-1H-pyrazole-4-sulfonamide hydrochloride] was tested, and the Ki was at most 1000 nM.
NC1CCc2ccc(OCCNS(=O)(=O)CCC3CC3)cc2C1Cc1ccc(Cl)c(Cl)c1 (stereo not shown) [Example 125, N-(2-{[7-Amino-8-(3,4-dichlorobenzyl)-5,6,7,8-tetrahydronaphthalen-2-yl]oxy}ethyl)-2-cyclopropylethanesulfonamide hydrochloride] showed a Ki of at most 1000 nM.
Work on CN(CCOc1ccc2c(c1)C(Cc1ccc(Cl)c(Cl)c1)C(N1CCCC1)CC2)S(=O)(=O)CC1CC1 (stereo not shown) [Example 126, C-Cyclopropyl-N-{2-[8-(3,4-dichloro-benzyl)-7-pyrrolidin-1-yl-5,6,7,8-tetrahydronaphthalen-2-yloxy]-ethyl}-N-methyl-methanesulfonamide hydrochloride] yielded a Ki of at most 10 nM.
CN(CCOc1ccc2c(c1)C(Cc1ccccc1)C(N1CCCC1)CC2)S(=O)(=O)CC1CC1 (stereo not shown) [Example 127, N-(2-{[8-Benzyl-7-(pyrrolidin-1-yl)-5,6,7,8-tetrahydronaphthalen-2-yl]oxy}ethyl)-1-cyclopropyl-N-methylmethanesulfonamide hydrochloride] showed a Ki of at most 100 nM.
For NC1CCc2ccc(OCCNS(=O)(=O)CC3CC3)cc2C1Cc1ccc(Cl)cc1 (stereo not shown) [Example 128, N-(2-{[7-Amino-8-(4-chlorobenzyl)-5,6,7,8-tetrahydronaphthalen-2-yl]oxy}ethyl)-1-cyclopropylmethanesulfonamide hydrochloride], the Ki was at most 100 nM.
CN(CCOc1ccc2c(c1)C(Cc1ccc(Cl)cc1)C(N)CC2)S(=O)(=O)CC1CC1 (stereo not shown) [Example 129, N-(2-{[7-Amino-8-(4-chlorobenzyl)-5,6,7,8-tetrahydronaphthalen-2-yl]oxy}ethyl)-1-cyclopropyl-N-methylmethanesulfonamide hydrochloride] was tested, and the Ki was at most 10 nM.
Work on CN(CCOc1ccc2c(c1)C(Cc1ccccc1)C(N)CC2)S(=O)(=O)CC1CC1 (stereo not shown) [Example 130, N-[2-(7-Amino-8-benzyl-5,6,7,8-tetrahydro-naphthalen-2-yloxy)-ethyl]-C-cyclopropyl-Nmethyl-methanesulfonamide hydrochloride] yielded a Ki of at most 10 nM.
NC1CCc2ccc(OCCNS(=O)(=O)CC3CC3)cc2C1Cc1ccc(F)c(F)c1 (stereo not shown) [Example 131, N-(2-{[7-Amino-8-(3,4-difluorobenzyl)-5,6,7,8-tetrahydronaphthalen-2-yl]oxy}ethyl)-1-cyclopropylmethanesulfonamide hydrochloride] gave a Ki of at most 100 nM.
Compound O=S(=O)(CC1CC1)NCCOc1ccc2c(c1)C(Cc1ccc(Cl)c(Cl)c1)C(N1CCCC1)CC2 (stereo not shown) [Example 132, C-Cyclopropyl-N-{2-[8-(3,4-dichloro-benzyl)-7-pyrrolidin-1-yl-5,6,7,8-tetrahydronaphthalen-2-yloxy]-ethyl}-methanesulfonamide hydrochloride] has a Ki of at most 100 nM.
O=S(=O)(CC1CC1)NCCOc1ccc2c(c1)C(Cc1ccccc1)C(N1CCCC1)CC2 (stereo not shown) [Example 133, N-(2-{[8-Benzyl-7-(pyrrolidin-1-yl)-5,6,7,8-tetrahydronaphthalen-2-yl]oxy}ethyl)-1-cyclopropylmethanesulfonamide hydrochloride] was tested, and the Ki was at most 100 nM.
